In PubChem BioAssay AID2060902 (Molecular Pharmacology Branch, DTP, NCI, 2025):
Where “and” joins values, the source holds several entries; their conditions need not be identical. Equal values may be shown once.

Test system: 485368-065-R3-J5-PDC spheroids with HUVEC/MSC, viability
Assay: Anticancer human tumor 485368-065-R3-J5-PDC patient-derived pancreatic carcinoma cell line growth inhibition [RAS]
Settings: for viability, T/C: stronger effect = lower value
Text: RAS pathway inhibitors in Combinations in Complex Spheroids
A high-throughput screen of multi-cell type tumor spheroids was designed to identify active combinations of RAS pathway inhibitors and targeted small molecules. Complex spheroids include a stromal component modeled by human endothelial cells (HUVEC) and fibroblasts modeled by human mesenchymal stem cells (MSCs). The concentration ranges selected for each drug and investigational agent were based upon clinically achievable concentrations if the clinical Cmax of the agent was known.
Compounds. The drugs and investigational agents: abemaciclib (NSC768073), cobimetinib (NSC768068), divarasib (GDC6063, NSC841802), docetaxel (NSC628503), GDC-1971 (RLY-1971, NSC841576), gemcitabine (NSC613327), inavolisib (NSC800729), ipatasertib (NSC767898), KB-0742 (NSC834161), MRTX-1133 (NSC836407), osimertinib (NSC779217), RMC-4630 (NSC839698), RMC-6236 (NSC851965), RMC-6291 (NSC852671), Ro-3306 (NSC812927), sapanisertib (NSC764658), SN-38 (NSC673596), staurosporine (NSC755774), SY5609 (NSC837396), and tovorafenib (DAY101, NSC766906), were obtained from the National Cancer Institute (NCI) Developmental Therapeutics Program Chemical Repository. The FDA-approved anticancer drug set is available from the NCI Developmental Therapeutics Program. […] The stock solutions were prepared in dimethyl sulfoxide (DMSO, Sigma-Aldrich, St. Louis, MO, cat. D2650) at 800-fold the tested concentration and stored at -70 degrees C prior to their use. All drugs and investigational agents were tested over a range starting from a high concentration at or near the clinical Cmax and decreasing in half-log increments. If the clinical Cmax for an agent had not been determined, the highest concentration tested was 10 microM.
Cell Culture. All cells were maintained in an incubator at 37 degrees C and 5% CO2 with 95% humidity. The PDC lines were cultured according to standard operating procedures established by the NCI PDMR. All PDCs were thawed and cultured in Matrigel-coated flasks prepared with a working solution of 1X Ham's F-12 nutrient mix, without supplementation (Invitrogen, Waltham, MA, cat. 11765054), 100 U/mL penicillin-streptomycin (Invitrogen, cat. 15140122), and 2.5% Matrigel (Corning Inc., Corning, NY, cat. 354248) for the first three passages. The 362531-283-R-J2-PDC and 782815-120-R-J1-PDC lines were cultured in 6C/Colon 1B media, which includes advanced DMEM/F-12 (Thermo Fisher Scientific, cat. 12634028), 10 mM HEPES (Thermo Fisher Scientific, cat. 15630080), 1X GlutaMAX supplement (Thermo Fisher Scientific, cat. 35050061), 0.1 mg/mL primocin (InvivoGen, San Diego, CA, cat. ant-pm-2), 10% defined fetal bovine serum, heat inactivated (HyClone Laboratories Inc., Logan, UT, cat. SH30070.03HI), 50% L-WRN conditioned media (ATCC, cat. CRL-3276), 1.25 mM N-Acetyl-L-cysteine (Sigma-Aldrich, cat. A9165), 10 mM nicotinamide (Sigma-Aldrich, cat. N0636), 1X B-27 supplement (Thermo Fisher Scientific, cat. 17504044), 1X N-2 supplement (Thermo Fisher Scientific, cat. 17502048), 50 ng/mL human EGF (Thermo Fisher Scientific, cat. PHG0311), and 10 microM Y-27632 dihydrochloride (Tocris Bioscience, cat. 1254). The K12877-001-R-J1-PDC line was cultured in 6I media, which includes all 6C/Colon 1B media plus 10 ng/mL human FGF-10 (PeproTech, cat. 100-26), 1 ng/mL human FGF-2 (PeproTech, cat. 100-18B), 1 µM prostaglandin E2 (Tocris Bioscience, cat. 2296), […] hydrocortisone (Sigma-Aldrich, cat. H4001), and […] bovine insulin (Sigma-Aldrich, cat. I6634). The K86415-001-R-J1-PDC line was cultured in 6D media, which includes all 6C/Colon 1B media components minus the L-WRN conditioned media. The 485176-168-R4-J1-PDC was cultured in PANC media, which includes all 6C/Colon 1B media plus 100 ng/mL human FGF-10 (PeproTech, cat. 100-26), 500 nM SB-431542 (Selleckchem, cat. S1067), and 10 nM gastrin (Tocris Bioscience, cat. 3006). […]
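Further: spheroids exposed to agents for seven days before readout.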

CC(=O)OC12COC1CC(O)C1(C)C(=O)C(O)C3=C(C)C(OC(=O)C(O)C(NC(=O)OC(C)(C)C)c4ccccc4)CC(O)(C(OC(=O)c4ccccc4)C21)C3(C)C (stereo not given)
viability, T/C (compound 0.0316 µM): 16.4% [middle of 4 runs]
viability, T/C (compound 0.1 µM): 15.4% [middle of 4 runs]
viability, T/C (compound 0.316 µM): 14% [middle of 4 runs]
viability, T/C (compound 1 µM): 16.1% [middle of 4 runs]
viability, T/C (compound 3.16 µM): 19.1% [middle of 4 runs]
viability, T/C (compound 10 µM): 29.6% [middle of 4 runs]
IC50 (curve of compound): < 31.6 nM

CC(C)NCC(C(=O)N1CCN(c2ncnc3c2C(C)CC3O)CC1)c1ccc(Cl)cc1 (stereo not given)
viability, T/C (compound 0.0316 µM): 104% and 101% (2×) and 98.3%
viability, T/C (compound 0.1 µM): 100% [middle of 4 runs]
viability, T/C (compound 0.316 µM): 94.8% [middle of 4 runs]
viability, T/C (compound 1 µM): 86.2% [middle of 4 runs]
viability, T/C (compound 3.16 µM): 77.1% [middle of 4 runs]
viability, T/C (compound 10 µM): 52.3% [middle of 4 runs]
IC50 (curve of compound): > 10000 nM and 8610 nM

CC1(O)CCCC1n1c(=O)c(C(F)F)cc2cnc(NC3CCN(S(C)(=O)=O)CC3)nc21 (stereo not given)
viability, T/C (compound 0.0316 µM): 104% [middle of 4 runs]
viability, T/C (compound 0.1 µM): 74% [middle of 4 runs]
viability, T/C (compound 0.316 µM): 50.7% [middle of 4 runs]
viability, T/C (compound 1 µM): 42.3% (2×) and 46.1% and 41.8%
viability, T/C (compound 3.16 µM): 47.1% [middle of 4 runs]
viability, T/C (compound 10 µM): 19.6% [middle of 4 runs]
IC50 (curve of compound): 469 nM [middle of 4 runs]

CCC(CC)c1cc(NC2CCC(N)C2)n2nccc2n1 (stereo not given)
viability, T/C (compound 0.0316 µM): 106% [middle of 4 runs]
viability, T/C (compound 0.1 µM): 99.2% [middle of 4 runs]
viability, T/C (compound 0.316 µM): 115% and 105% (2×) and 109%
viability, T/C (compound 3.16 µM): 4.93% [middle of 4 runs]
viability, T/C (compound 10 µM): 8.61% [middle of 4 runs]
IC50 (curve of compound): 1.96 µM [middle of 4 runs]

C[C@@H](NC(=O)c1ncnc(N)c1Cl)c1ncc(C(=O)Nc2cc(C(F)(F)F)c(Cl)cn2)s1
viability, T/C (compound 0.0316 µM): 114% (3×) and 115%
viability, T/C (compound 0.1 µM): 104% [middle of 4 runs]
viability, T/C (compound 0.316 µM): 109% [middle of 4 runs]
viability, T/C (compound 1 µM): 93.4% and 96.5% (2×) and 92.5%
viability, T/C (compound 3.16 µM): 108% [middle of 4 runs]
viability, T/C (compound 10 µM): 82.4% [middle of 4 runs]
IC50 (curve of compound): > 10000 nM

Cc1nc(N2CCC3(CC2)COC(C)C3N)c(CO)nc1Sc1ccnc(N)c1Cl (stereo not given)
viability, T/C (compound 0.0316 µM): 102% [middle of 4 runs]
viability, T/C (compound 0.1 µM): 93.5% [middle of 4 runs]
viability, T/C (compound 0.316 µM): 88.9% [middle of 4 runs]
viability, T/C (compound 1 µM): 72.8% [middle of 4 runs]
IC50 (curve of compound): > 10000 nM

NC1c2ccccc2OC12CCN(c1cnc3c(N4CCCc5ncccc54)n[nH]c3n1)CC2 (stereo not given)
viability, T/C (compound 0.0316 µM): 92.8% [middle of 4 runs]
viability, T/C (compound 0.1 µM): 82.1% [middle of 4 runs]
viability, T/C (compound 1 µM): 70.1% [middle of 4 runs]
IC50 (curve of compound): > 10000 nM

C=CC(=O)Nc1cc(Nc2nccc(-c3cn(C)c4ccccc34)n2)c(OC)cc1N(C)CCN(C)C + C#Cc1c(F)ccc2cc(O)cc(-c3ncc4c(N5CC6CCC(C5)N6)nc(OCC56CCCN5CC(F)C6)nc4c3F)c12
IC50 (curve of first compound, second compound 0.0316 µM): > 1000 nM
IC50 (curve of first compound, second compound 0.1 µM): > 1000 nM
IC50 (curve of first compound, second compound 0.316 µM): > 1000 nM
IC50 (curve of first compound, second compound 1 µM): > 1000 nM
IC50 (curve of first compound, second compound 3.16 µM): > 1000 nM
IC50 (curve of first compound, second compound 10 µM): < 3.16 nM
viability, T/C (second compound 0.0316 µM, first compound 0.00316 µM): 103%
viability, T/C (second compound 0.0316 µM, first compound 0.01 µM): 101%
viability, T/C (second compound 0.0316 µM, first compound 0.0316 µM): 106%
viability, T/C (second compound 0.0316 µM, first compound 0.1 µM): 104%
viability, T/C (second compound 0.0316 µM, first compound 0.316 µM): 101%
viability, T/C (second compound 0.0316 µM, first compound 1 µM): 89.7%
viability, T/C (second compound 0.1 µM, first compound 0.00316 µM): 97%
viability, T/C (second compound 0.1 µM, first compound 0.01 µM): 95.8%
viability, T/C (second compound 0.1 µM, first compound 0.0316 µM): 95.8%
viability, T/C (second compound 0.1 µM, first compound 0.1 µM): 108%
viability, T/C (second compound 0.1 µM, first compound 0.316 µM): 108%
viability, T/C (second compound 0.1 µM, first compound 1 µM): 96.2%
viability, T/C (second compound 0.316 µM, first compound 0.00316 µM): 107%
viability, T/C (second compound 0.316 µM, first compound 0.01 µM): 97.3%
viability, T/C (second compound 0.316 µM, first compound 0.0316 µM): 96.1%
viability, T/C (second compound 0.316 µM, first compound 0.1 µM): 103%
viability, T/C (second compound 0.316 µM, first compound 0.316 µM): 101%
viability, T/C (second compound 0.316 µM, first compound 1 µM): 85.5%
viability, T/C (second compound 1 µM, first compound 0.00316 µM): 106%
viability, T/C (second compound 1 µM, first compound 0.01 µM): 98.9%
viability, T/C (second compound 1 µM, first compound 0.0316 µM): 100%
viability, T/C (second compound 1 µM, first compound 0.1 µM): 97.3%
viability, T/C (second compound 1 µM, first compound 0.316 µM): 83.3%
viability, T/C (second compound 1 µM, first compound 1 µM): 74.6%
viability, T/C (second compound 3.16 µM, first compound 0.00316 µM): 78%
viability, T/C (second compound 3.16 µM, first compound 0.01 µM): 83.6%
viability, T/C (second compound 3.16 µM, first compound 0.0316 µM): 72.4%
viability, T/C (second compound 3.16 µM, first compound 0.1 µM): 67.6%
viability, T/C (second compound 3.16 µM, first compound 0.316 µM): 63.3%
viability, T/C (second compound 3.16 µM, first compound 1 µM): 49.8%
viability, T/C (second compound 10 µM, first compound 0.00316 µM): 48%
viability, T/C (second compound 10 µM, first compound 0.01 µM): 43.7%
viability, T/C (second compound 10 µM, first compound 0.0316 µM): 37%
viability, T/C (second compound 10 µM, first compound 0.1 µM): 37.3%
viability, T/C (second compound 10 µM, first compound 0.316 µM): 28.6%
viability, T/C (second compound 10 µM, first compound 1 µM): 30.1%
